Data: PMC9226124, “Macrocycle-stabilization of its interaction with 14-3-3 increases plasma membrane localization and activity of CFTR” (Nature Communications, 2022)
Several values for one entry are separate records, joined by “and”; a condition that tells them apart may be missing. Equal values may be shown once.

Tests used:
[1] = molecular target: T1, 14-3-3β/CFTRpS753pS768 complex (Homo sapiens, UniProt P13569+P31946); experiment: Dose-response fluorescence polarization (FP) assay, compound titration; format: binding; conditions: for FP signal: With 14-3-3
T1 construct: His6 (cleaved yes); made in house; peptide synthetic
T1 sequence (P31946 whole entry): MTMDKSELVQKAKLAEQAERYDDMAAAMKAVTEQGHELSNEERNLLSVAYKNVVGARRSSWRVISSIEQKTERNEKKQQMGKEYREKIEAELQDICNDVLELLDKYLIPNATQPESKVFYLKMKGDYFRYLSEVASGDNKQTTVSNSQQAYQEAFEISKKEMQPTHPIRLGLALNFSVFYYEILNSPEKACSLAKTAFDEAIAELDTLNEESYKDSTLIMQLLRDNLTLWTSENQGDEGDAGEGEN
T1 sequence (P13569 747-774 limits assumed): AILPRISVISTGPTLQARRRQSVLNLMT
In short: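 Compounds were titrated in two-fold dilutions against 10 μM 14-3-3β and FITC-CFTR pS753pS768 peptide (100 nM or 10 nM). Buffer: 10 mM HEPES pH 7.4, 150 mM NaCl, 0.1% Tween20, 1 mg/mL BSA. Polarization was read at ex 485/em 535 nm, and EC50 was derived from a four-parameter variable-slope fit.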

[2] = molecular target: T1, 14-3-3β/CFTRpS753pS768 complex; experiment: FP assay, 14-3-3β titration at constant compound concentration (apparent KD); format: binding

With `N=C(N)NCCCC1NC(=O)C(CCC(N)=O)NC(=O)C(CCCNC(=N)N)NC(=O)C2CCCN2Cc2cccc(c2)-c2ccccc2CNC1=O` (centres unmarked) [CY007455] the EC50 ([1]; 14-3-3β 10 μM, labeled CFTRpS753pS768 100 nM, read-out: EC50) was 170 µM, the FP signal ([1]; compound 476.8 pM) was 5 and the FP signal ([1]; compound 953.7 pM) was 6. It also gave an FP signal ([1]; compound 1.90735e-9 M) of 3, an FP signal ([1]; compound 3.8147e-9 M) of 4 and an FP signal ([1]; compound 7.6294e-9 M) of 5. It also gave an FP signal ([1]; compound 1.52588e-8 M) of 4, an FP signal ([1]; compound 3.05176e-8 M) of 4 and an FP signal ([1]; compound 6.10352e-8 M) of 5. It also gave an FP signal ([1]; compound 1.2207e-7 M) of 7, an FP signal ([1]; compound 2.44141e-7 M) of 6 and an FP signal ([1]; compound 4.88281e-7 M) of 4. The FP signal ([1]; compound 9.76563e-7 M) was 4, the FP signal ([1]; compound 1.95313e-6 M) was 5 and the FP signal ([1]; compound 3.90625e-6 M) was 9. The FP signal ([1]; compound 7.8125e-6 M) was 8, the FP signal ([1]; compound 1.5625e-5 M) was 15 and the FP signal ([1]; compound 3.125e-5 M) was 26. For the same compound, the FP signal ([1]; compound 6.25e-5 M) was 53, the FP signal ([1]; compound 0.000125 M) was 107 and the FP signal ([1]; compound 0.00025 M) was 170. The FP signal ([1]; compound 0.0005 M) was 209, the FP signal ([1]; compound 0.001 M) was 244 and the “Fluorescence polarization signal, 14-3-3β titration” value (“Fluorescence polarization signal” below) ([2]; CY compound (100 μM), 14-3-3β concentration 119.2 pM) was 1.333. For the same compound, the “Fluorescence polarization signal” value ([2]; CY compound (100 μM), 14-3-3β concentration 4.88281e-7 M) was 8.333 and 7.333, the “Fluorescence polarization signal” value ([2]; CY compound (100 μM), 14-3-3β concentration 9.76563e-7 M) was 12.3333 and 8.333 and 11.3333 and the “Fluorescence polarization signal” value ([2]; CY compound (100 μM), 14-3-3β concentration 1.95313e-6 M) was 20.3333 and 17.3333 and 14.3333. The “Fluorescence polarization signal” value ([2]; CY compound (100 μM), 14-3-3β concentration 3.90625e-6 M) was 27.3333 and 24.3333 and 22.3333, the “Fluorescence polarization signal” value ([2]; CY compound (100 μM), 14-3-3β concentration 7.8125e-6 M) was 38.3333 and 32.3333 and 35.3333 and the “Fluorescence polarization signal” value ([2]; CY compound (100 μM), 14-3-3β concentration 1.5625e-5 M) was 51.3333 and 50.3333 and 48.3333. For the same compound, the “Fluorescence polarization signal” value ([2]; CY compound (100 μM), 14-3-3β concentration 3.125e-5 M) was 68.3333 and 69.3333 and 65.3333, the “Fluorescence polarization signal” value ([2]; CY compound (100 μM), 14-3-3β concentration 6.25e-5 M) was 92.3333 and 88.3333 and 91.3333 and the “Fluorescence polarization signal” value ([2]; CY compound (100 μM), 14-3-3β concentration 0.000125 M) was 110.333 and 109.333. For the same compound, the “Fluorescence polarization signal” value ([2]; CY compound (100 μM), 14-3-3β concentration 0.00025 M) was 128.333 and 124.333 and 127.333, the “Fluorescence polarization signal” value ([2]; CY compound (100 μM), 14-3-3β concentration 0.0005 M) was 152.333 and 149.333 and the “Fluorescence polarization signal” value ([2]; FC-A + CY compound, 14-3-3β concentration 119.2 pM) was 2 and 1. For the same compound, the “Fluorescence polarization signal” value ([2]; FC-A + CY compound, 14-3-3β concentration 6.10352e-8 M) was 5 and 6 and 9, the “Fluorescence polarization signal” value ([2]; FC-A + CY compound, 14-3-3β concentration 1.2207e-7 M) was 9 and 7 and the “Fluorescence polarization signal” value ([2]; FC-A + CY compound, 14-3-3β concentration 2.44141e-7 M) was 10 and 13 and 15. The “Fluorescence polarization signal” value ([2]; FC-A + CY compound, 14-3-3β concentration 4.88281e-7 M) was 23 and 24 and 20, the “Fluorescence polarization signal” value ([2]; FC-A + CY compound, 14-3-3β concentration 9.76563e-7 M) was 41 and 39 and 35 and the “Fluorescence polarization signal” value ([2]; FC-A + CY compound, 14-3-3β concentration 1.95313e-6 M) was 58 and 54 and 52. The “Fluorescence polarization signal” value ([2]; FC-A + CY compound, 14-3-3β concentration 3.90625e-6 M) was 74 and 73 and 71, the “Fluorescence polarization signal” value ([2]; FC-A + CY compound, 14-3-3β concentration 7.8125e-6 M) was 91 and 96 and 92 and the “Fluorescence polarization signal” value ([2]; FC-A + CY compound, 14-3-3β concentration 1.5625e-5 M) was 115 and 114. The “Fluorescence polarization signal” value ([2]; FC-A + CY compound, 14-3-3β concentration 3.125e-5 M) was 128 and 129 and 126, the “Fluorescence polarization signal” value ([2]; FC-A + CY compound, 14-3-3β concentration 6.25e-5 M) was 141 and 144 and the “Fluorescence polarization signal” value ([2]; FC-A + CY compound, 14-3-3β concentration 0.000125 M) was 157 and 153 and 158. The “Fluorescence polarization signal” value ([2]; FC-A + CY compound, 14-3-3β concentration 0.00025 M) was 160 and 164 and the “Fluorescence polarization signal” value ([2]; FC-A + CY compound, 14-3-3β concentration 0.0005 M) was 175 and 174.
